Source: patent publication US9499570B2, “Boron containing small molecules” (priority 2010, dated 2016)
“Also recorded” adds a separate entry of the source.

Tests used:
[1] = tested on: Brugia malayi; experiment: Brugia malayi in vitro assay, adult female worms; settings: 50 uM
Protocol: Adult female worms are shipped from TRS Labs Inc. (Nonglak Supakorndej, Lab Director, 295 Research Dr., Athens, Ga. 30605; 706-549-0764) via Fed Ex. Individual worms are shipped in 2 mls vials with RPMI on Mondays and arrive at the […] Center lab on Tuesday mornings. Individual worms are poured into each well (24-well tissue culture plates) to avoid handling worms since they are very delicate and easily broken. Transport media is removed and replaced with 0.5 mls of RPMI-1640 (25 mM HEPES, 2 g/L NaHCO3, Antibiotic/Antimycotic, 5% HI FBS). Worms are maintained in a 37° C. 5% CO2 incubator. Compounds are added directly to each duplicate well (5 ul of 5 mM for a final concentration of 50 uM). DMSO (5 ul) is used as a negative control and Ivermectin (Sigma) is used as a positive control at 100 uM/well and 20 uM/well. Adult filarial nematodes can shed/give birth to microfilarial worms (mf) during the course of the assay. Wells were reviewed for the presence of mf, and the viability of mf, by visual observation of the well on the last day of observation (Day 7). Plates are examined once a day for 4-7 days. […] If changes are observed, worms are more closely examined under a dissecting microscope.

[2] = tested on: Schistosoma mansoni adult worms; experiment: Schistosoma mansoni adult worm phenotype screen in vitro; settings: for Adult worm screen phenotype 7 h / Adult worm screen phenotype 24 h / Adult worm screen phenotype 4 d / Adult worm screen phenotype 6 d*: Second Set, 5 uM; for Phenotypes caused by positive control compounds: adult worms
From the text: (§1) Puerto Rican isolates of S. mansoni using Biomphalaria glabrata snails and golden hamsters as intermediate and definitive hosts, respectively, were maintained and handled in the University of California-San Francisco Sandler Center for Tropical Medicine. Patent B. glabrata snails (6-8 weeks after exposure to 5-10 infectious miracidia) were induced to shed infective larvae (cercariae) under light stimulus into the surrounding water. Cercariae were washed in rounds of ice-cold water and concentrated through and over sieves of varying pore sizes. They were then mechanically sheared (separation of heads from tails) as described in Colley D G, et al. Exp Parasitol 1974, 35:44-51, in ice-cold Incomplete Medium 169 (as described in Basch P F. J Parasitol 1981, 67:179-185, minus FBS and antibiotics) by passing 15 times through a double headed 22-gauge syringe needle connected to two 10 mL syringes. The resulting cercarial heads (schistosomula) were separated from their tails by swirling in a petri dish. Concentrated schistosomula were added to a sterile 1.5 mL centrifuge tube and allowed to settle over ice. Schistosomula were transferred to a sterile environment and washed 4 times in Incomplete Medium 169 prior to plating.
(§2) Two sets of screening were performed. In the first set, compounds were screened against schistosomula and observations were made at 24 hours, 2 days, 3 days, 4 days, and 6 days. In the second set, compounds were screened against schistosomula with observations at 24 hours, 2 days, 3 days, and 4 days and adult worms at 7 hours, 24 hours, 4 days, and 6 days.
Given the delicacy and size (0.5-1.5 cm in length) of this stage all operations were performed manually by the Sandler Center. 24-well plates were set up with compound (final DMSO concentration=0.5%) containing approximately 5 pairs of worms (S. mansoni has separate sexes) in 2 mL complete Basch medium per well. Plates were maintained at 37° C. in a 5% CO2 atmosphere. All compounds were tested in duplicate with at least two experimental replicates.
(§3) A semi-quantitative and controlled nomenclature for phenotypes that can arise as a result of compound insult to both schistosomula and adults was utilized (Abdulla M H, et al., PLoS Negl Trop Dis 2009, 3:e478). Phenotypes were recorded by visual inspection and on a flexible time basis but at least at 24 h and 4 day time-points in the case of large scale screening. […] To help eliminate bias, two screen analysts scored phenotypes ‘blind’ both to knowledge of the contents of each screening plate and the phenotypes scored by his/her colleague. Upon completing their individual assessments, each analyst's ‘hit sheet’ was then compared to derive a ‘consensus hit sheet’. Discrepancies in analysts' hit sheets were re-evaluated under the microscope to eventually make a consensus hit call.
(§4) Hyper-coiled and coiled represent a verbal description of the visual phenotype as compared to the DMSO control. The + and ++ and +++ means more of the phenotype which preceded it. The − means less of the phenotype which preceded it. Results

[3] = tested on: Schistosoma mansoni schistosomula; experiment: Schistosoma mansoni schistosomula phenotype screen in vitro; settings: for Schistosomula (juvenile infective form) worm screen phenotype 24 h / Schistosomula (juvenile infective form) worm screen phenotype 2 d / Schistosomula (juvenile infective form) worm screen phenotype 3 d / Schistosomula (juvenile infective form) worm screen phenotype 4 d: Second Set, 5 uM; for Phenotypes caused by positive control compounds: schistosomula
From the text: as §1, §2
Plates contain 200 schistosomula/well in […] complete Basch medium and were maintained at 37° C. in a 5% CO2 atmosphere. All compounds were tested in duplicate with at least two experimental replicates. Compounds and control compounds were added to the plates using the Biomek FXp using 96-well disposable tips. Final concentration of DMSO in each well was 0.5%.
as §3, §4

For `CC(C)OCCOc1nc(Oc2ccc3c(c2)COB3O)ccc1C#N` [6-(1-hydroxy-1,3-dihydrobenzo[c][1,2]oxaborol-5-yloxy)-2-(4-isopropoxyethoxy)nicotinonitrile], the “Presence and viability of microfilarial worms (mf) Day 7” value ([1]; trial one) was “mf and alive”, the “Worm activity / phenotype Day 1” value ([1]; trial one) was “hyper-; also recorded: coiled” and the “Worm activity / phenotype Day 3” value ([1]; trial one) was “hyper-; also recorded: coiled”. The “Worm activity / phenotype Day 7” value ([1]; trial one) was 0, and coiled, the “Presence and viability of microfilarial worms (mf) Day 7” value ([1]; trial two) was “no mf and obs” and the “Worm activity / phenotype Day 1” value ([1]; trial two) was “hyper-; also recorded: coiled”. The “Worm activity / phenotype Day 2” value ([1]; trial two) was “hyper-; also recorded: coiled”, the “Worm activity / phenotype Day 3” value ([1]; trial two) was 4 (4=highly active (controls)) and the “Worm activity / phenotype Day 7” value ([1]; trial two) was 0, and coiled.

In the case of `COc1nc(Oc2cc3c(cc2F)B(O)OC3)ccc1C#N` [6-(6-Fluoro-1-hydroxy-1,3-dihydrobenzo[c][1,2]oxaborol-5-yloxy)-2-methoxynicotinonitrile], the “Adult worm screen phenotype 7 h” value [2] was “O++”, the “Adult worm screen phenotype 24 h” value [2] was “O++ sex sep” and the “Adult worm screen phenotype 4 d” value [2] was “O+, sex sep; also recorded: males dark”. For the same compound, the “Adult worm screen phenotype 6 d*” value [2] was “Dark, Partial D”, the “Schistosomula phenotype day 6” value ([3]; First Set) was “R O and some and partial D” and the “Schistosomula (juvenile infective form) worm screen phenotype 24 h” value [3] was “R, O++,; also recorded: some deg-m”. The “Schistosomula (juvenile infective form) worm screen phenotype 2 d” value [3] was “O+++, and R−, and some and deg-M”, the “Schistosomula (juvenile infective form) worm screen phenotype 3 d” value [3] was “O+++, and some and deg-M” and the “Schistosomula (juvenile infective form) worm screen phenotype 4 d” value [3] was “O+++, some; also recorded: deg-M”.

With `O=C(C1CCCCC1)N1CC(=O)N2CCc3ccccc3C2C1` (centres unmarked) [PZQ, reference compound] the “Phenotypes caused by positive control compounds” value (“Phenotypes caused” below) [2] was “dose-dependent, rapid and severe phenotypes” and the “Phenotypes caused” value [3] was “dose-dependent, rapid and severe phenotypes”.

With `CC(=O)CCCOc1nc(Oc2ccc3c(c2)COB3O)ccc1C#N` [D141, 6-(1-hydroxy-1,3-dihydrobenzo[c][1,2]oxaborol-5-yloxy)-2-(4-oxopentyloxy) nicotinonitrile, reference compound] the “Adult worm screen phenotype 7 h” value [2] was “O++, and Sex sep (Sex sep=worm pairs have separated) and (violent and motion)”, the “Adult worm screen phenotype 24 h” value [2] was “O++, Sex; also recorded: sep (violent; also recorded: motion)” and the “Adult worm screen phenotype 4 d” value [2] was “O++, sex; also recorded: sep on sides,; also recorded: males dark”. For the same compound, the “Adult worm screen phenotype 6 d*” value [2] was “Dark, S,; also recorded: Partial D (Partial D=partial killing of worm population)”, the “Schistosomula (juvenile infective form) worm screen phenotype 24 h” value [3] was “R, O++,; also recorded: some deg-m” and the “Schistosomula (juvenile infective form) worm screen phenotype 2 d” value [3] was “O+++, and R−, and some and deg-M”. The “Schistosomula (juvenile infective form) worm screen phenotype 3 d” value [3] was “O+++, R, and some and deg-M” and the “Schistosomula (juvenile infective form) worm screen phenotype 4 d” value [3] was “O+++, R,; also recorded: some deg-M”.

With `N#Cc1ccc(Oc2ccc3c(c2)COB3O)nc1` [6-(1-hydroxy-1,3-dihydrobenzo[c][1,2]oxaborol-5-yloxy)nicotinonitrile] the “Adult worm screen phenotype 7 h” value [2] was “O−”, the “Schistosomula phenotype day 4” value ([3]; First Set) was “O−, and R−” and the “Schistosomula (juvenile infective form) worm screen phenotype 24 h” value [3] was “R−, O−”. For the same compound, the “Schistosomula (juvenile infective form) worm screen phenotype 2 d” value [3] was “R−, O−, and some and deg-M”, the “Schistosomula (juvenile infective form) worm screen phenotype 3 d” value [3] was “O, some; also recorded: deg-M” and the “Schistosomula (juvenile infective form) worm screen phenotype 4 d” value [3] was “O, some deg-M”.

In the case of `O=C(Nc1ccc(Oc2ccc(Cl)cc2)c(Cl)c1)c1cc(I)cc(I)c1O` [rafoxanide, reference compound], the “Phenotypes caused” value [2] was “dose-dependent, rapid and severe phenotypes” and the “Phenotypes caused” value [3] was “dose-dependent, rapid and severe phenotypes”.

`N#Cc1ccc(Oc2ccc3c(c2)COB3O)nc1OC1CCCC1` [2-Cyclopentyloxy-6-(1-hydroxy-1,3-dihydro-benzo[c][1,2]oxaborol-5-yloxy)-nicotinonitrile] was tested, and the “Adult worm screen phenotype 7 h” value [2] was “O+”, the “Adult worm screen phenotype 24 h” value [2] was “O−” and the “Adult worm screen phenotype 4 d” value [2] was “v, slow, sex; also recorded: sep, on sides”. The “Adult worm screen phenotype 6 d*” value [2] was “Dark, S,; also recorded: Partial D (Partial D=partial killing of worm population)”, the “Schistosomula (juvenile infective form) worm screen phenotype 2 d” value [3] was “O++, R−, and some and deg-M” and the “Schistosomula (juvenile infective form) worm screen phenotype 3 d” value [3] was “O++, R−, and some and deg-M”. For the same compound, the “Schistosomula (juvenile infective form) worm screen phenotype 4 d” value [3] was “O++, R−,; also recorded: some deg-M”.

With `O=C(Nc1ccc([N+](=O)[O-])cc1Cl)c1cc(Cl)ccc1O` [niclosamide, reference compound] the “Phenotypes caused” value [2] was “dose-dependent, rapid and severe phenotypes” and the “Phenotypes caused” value [3] was “dose-dependent, rapid and severe phenotypes”.

With `N#Cc1ccc(Oc2ccc3c(c2)COB3O)c(OCC2CC2)c1` [3-(Cyclopropylmethoxy)-4-(1-hydroxy-1,3-dihydrobenzo[c][1,2]oxaborol-5-yloxy)benzonitrile] the “Schistosomula phenotype day 3” value ([3]; First Set) was “O+ and partial D”.

In the case of `CC(=O)OCCOc1nc(Oc2ccc3c(c2)COB3O)ccc1C#N` [6-(1-Hydroxy-1,3-dihydro-benzo[c][1,2]oxaborol-5-yloxy)-2-(acetyloxyethoxy)-nicotinonitrile], the “Schistosomula phenotype day 3” value ([3]; First Set) was “O+ and partial D” and the “Schistosomula phenotype day 6” value ([3]; First Set) was “R O+ and Partial D (Partial D=partial killing of worm population)”.

In the case of `CC(C)OCCOc1nc(Oc2ccc3c(c2)COB3O)ccc1C#N` [D140, 6-(1-Hydroxy-1,3-dihydrobenzo[c][1,2]oxaborol-5-yloxy)-2-(2-isopropoxyethoxy)nicotinonitrile, reference compound], the “Adult worm screen phenotype 7 h” value [2] was “O++”, the “Adult worm screen phenotype 24 h” value [2] was “O++ sex sep” and the “Adult worm screen phenotype 4 d” value [2] was “O, sex sep,”. The “Schistosomula (juvenile infective form) worm screen phenotype 24 h” value [3] was “R, O++,; also recorded: some deg-m”, the “Schistosomula (juvenile infective form) worm screen phenotype 2 d” value [3] was “O+++, and R−, and some and deg-M” and the “Schistosomula (juvenile infective form) worm screen phenotype 3 d” value [3] was “O+++, R, and some and deg-M”. The “Schistosomula (juvenile infective form) worm screen phenotype 4 d” value [3] was “O+++, R,; also recorded: some deg-M”.

In the case of `CC(C)OC(=O)c1ccc(Oc2ccc3c(c2)COB3O)nc1` [Isopropyl 6-(1-hydroxy-1,3-dihydrobenzo[c][1,2]oxaborol-5-yloxy)nicotinate], the “Schistosomula phenotype day 2” value ([3]; First Set, day 2) was “O, (O=overactive); also recorded: deg-m”, the “Schistosomula phenotype day 4” value ([3]; First Set) was “O, R, and some and deg-m” and the “Schistosomula phenotype day 6” value ([3]; First Set) was “O, R,; also recorded: Partial D (Partial D=partial killing of worm population)”.

In the case of `CCOC(=O)c1cnc(Oc2ccc3c(c2)COB3O)c(Cl)c1` [Ethyl 5-chloro-6-(1-hydroxy-1,3-dihydrobenzo[c][1,2]oxaborol-5-yloxy)nicotinate], the “Schistosomula phenotype day 6” value ([3]; First Set) was “R O and deg-M and partial D”.
